According to patent publication US11278589B2, “Use of a cyclic tripeptide for improving cellular energy metabolism” (ASSISTANCE PUBLIQUE—HOPITAUX DE PARIS, priority 2015, dated 2022):
Positions of bridges follow the written chain, without caps; N, C: chain ends. Residues, ends and D or L forms follow the SMILES beside them.

Test system: Human oocytes
Assay: Randomized prospective study in human IVF (fertilin study)
Assay type: in vivo
Conditions: first step, 56 couples
Excerpt: A clinical trial was begun in the IVF laboratory of the MAP Center of Cochin, on Sep. 8, 2014, on 66 couples, the average age being 34.3±4.2 years old for the women and 37.0±5.2 for their partners. It is a randomized, single-center prospective study of in vitro fertilization (IVF) carried out in the presence or absence of FEEc. The oocytes, recovered from their cumulus, were divided up into two groups alternately into one and then into the other according to their order of recovery. When all the oocytes were recovered, a technician who had not participated in the recovery of the cumuli determined by randomization which of the two groups was inseminated in the presence of FEEc and which served as control. One part of the oocytes is incubated in the standard culture medium (Global, JCD), the other part in this same medium supplemented with 100 μM FEEc.
The methodology of this study, represented diagrammatically in FIG. 9, is presented below. Human oocytes originating from women 18 to 43 years old were recovered by ovarian puncture after hormonal stimulation by gynecologists. They were divided up in a randomized manner into 2 groups: the oocytes incubated in the presence of a standard culture medium supplemented with 100 μM FEEc or of a standard culture medium (Global, JCD), then placed in an incubator at 37° C. under an atmosphere of 5% of CO2. […]

Structure (SMILES): N[C@H]1CSSC[C@@H](C(=O)O)NC(=O)[C@H](CCC(=O)O)NC(=O)[C@H](CCC(=O)O)NC(=O)[C@H](Cc2ccccc2)NC(=O)[C@H](CO)NC1=O [FEEc, C-S-F-E-E-C] (H-CSFEEC-OH; disulfide 1-6)
- adverse effect: No adverse effect has been reported to date
